Measurements as given in US20260240760A1, “Injectable Compositions of Vitamers of Vitamin B12 and Uses Thereof” (Nevakar Injectables Inc., priority 2023, published 2026).

Experiments:
[1] = within 48 hours of injection; current standard-of-care injectable compositions; cited from earlier work
[2] = Cyanocobalamin concentration and appearance of polymer/DMSO compositions and stock solutions, with or without pamoic acid; type: physicochemical; conditions: pamoic acid present relative to not present
Protocol: Compositions comprising 25% polymer and cyanocobalamin either with or without pamoic acid (i.e., to form a cyanocobalamin pamoate salt) in 100% DMSO were prepared starting from 12 mg/g stock solutions, as shown in Tables 2 and 3.

Row | Substance | vitamin B12 excreted in urine [1] | Dissolution of cyanocobalamin in compositions comprising poly(lactide-co-glycolide) and DMSO [2]
1 | vitamin B12 | ≤ 98% | 
2 | cyanocobalamin pamoate |  | dissolves significantly more effectively
